Results from patent US10774064B2 (Cadent Therapeutics, Inc., priority 2016, dated 2020).

biological target: T1, small-conductance Ca2+-activated K+ channels (SK channels, subtype 2) (Homo sapiens, UniProt Q9H2S1); assay: whole-cell patch-clamp of ionic current through SK2 channels in HEK293 cells (SC100); assay type: cell-based; settings: concentration that increases the basal current by 100%; HEK293 cells expressing SK2 channels
T1 construct: expressed in transfected cells; host or cells: HEK293
How it was run: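 SC100, the concentration doubling basal current (a 100% increase), was taken from SK2 currents recorded by whole-cell patch-clamp in SK2-expressing HEK293 cells.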

SMILES | SC100
Cc1cc(C)n(-c2cc(NC3COC3)cc(NC3CCC(F)(F)CC3)n2)n1 [Compound 228, N2-(4,4-difluorocyclohexyl)-6-(3,5-dimethyl-1H-pyrazol-1-yl)-N4-(oxetan-3-yl)pyridine-2,4-diamine] | ++ (++ means 200 nM-1000 nM)
Cc1cc(NC2CCC(F)(F)CC2)nc(-n2nc(C)cc2C)n1 [Compound 247, N-(4,4-difluorocyclohexyl)-2-(3,5-dimethyl-1H-pyrazol-1-yl)-6-methylpyrimidin-4-amine] | ++ (++ means 200 nM-1000 nM)
Cc1cc(C)n(-c2nc(NC3CCC(F)(F)CC3)cc(OCc3ncnn3C)n2)n1 [Compound 274, N-(4,4-difluorocyclohexyl)-2-(3,5-dimethyl-1H-pyrazol-1-yl)-6-((1-methyl-1H-1,2,4-triazol-5-yl)methoxy)pyrimidin-4-amine] | + (+ means >1 uM)
Cc1cc(C)n(-c2cc(C(F)(F)F)cc(NC3CCC(F)(F)CC3)n2)n1 [Compound 170, N-(4,4-difluorocyclohexyl)-6-(3,5-dimethyl-1H-pyrazol-1-yl)-4-(trifluoromethyl)pyridin-2-amine] | ++ (++ means 200 nM-1000 nM)
CN(C)C(=O)C1CC1c1cc(NC2CCC(F)(F)CC2)nc(-n2ccc(CF)n2)n1 (centres unmarked) [Compound 308, 2-(6-((4,4-difluorocyclohexyl)amino)-2-(3-(fluoromethyl)-1H-pyrazol-1-yl)pyrimidin-4-yl)-N,N-dimethylcyclopropane-1-carboxamide] | + (+ means >1 uM)
Cc1cc(C)n(-c2cc(NCc3cnnn3C)cc(NC3CCC(F)(F)CC3)n2)n1 [Compound 250, N2-(4,4-difluorocyclohexyl)-6-(3,5-dimethyl-1H-pyrazol-1-yl)-N4-((1-methyl-1H-1,2,3-triazol-5-yl)methyl)pyridine-2,4-diamine] | ++ (++ means 200 nM-1000 nM)
Cc1ccn(-c2nc(NC3CCC(F)(F)CC3)cc(C3COCCC3O)n2)n1 (centres unmarked) [Compound 232, 3-(6-((4,4-difluorocyclohexyl)amino)-2-(3-methyl-1H-pyrazol-1-yl)pyrimidin-4-yl)tetrahydro-2H-pyran-4-ol] | + (+ means >1 uM)
COC(=O)N1CC(Oc2cc(NC3CCC(F)(F)CC3)nc(-c3nc(C(F)(F)F)cs3)n2)C1 [Compound 324, methyl 3-((6-((4,4-difluorocyclohexyl)amino)-2-(4-(trifluoromethyl)thiazol-2-yl)pyrimidin-4-yl)oxy)azetidine-1-carboxylate] | ++ (++ means 200 nM-1000 nM)
CCN(c1cc(C)nc(-n2nc(C)cc2C)n1)C1CCC(F)(F)CC1 [Compound 161, N-(4,4-difluorocyclohexyl)-2-(3,5-dimethyl-1H-pyrazol-1-yl)-N-ethyl-6-methylpyrimidin-4-amine] | + (+ means >1 uM)
Cc1ccn(-c2nc(NC3CCC(F)(F)CC3)cc(NC3COC3)n2)n1 [Compound 141, N4-(4,4-difluorocyclohexyl)-2-(3-methyl-1H-pyrazol-1-yl)-N6-(oxetan-3-yl)pyrimidine-4,6-diamine] | ++ (++ means 200 nM-1000 nM)
Cc1cc(NC2CCC(F)(F)CC2)nc(-n2ccc(C(F)(F)F)n2)n1 [Compound 200, N-(4,4-difluorocyclohexyl)-6-methyl-2-(3-(trifluoromethyl)-1H-pyrazol-1-yl)pyrimidin-4-amine] | ++ (++ means 200 nM-1000 nM)
COC(=O)N1CCC(Oc2cc(NC3CCC(F)(F)CC3)nc(-n3ccc(C(F)F)n3)n2)C1 (centres unmarked) [Compound 305, methyl 3-((6-((4,4-difluorocyclohexyl)amino)-2-(3-(difluoromethyl)-1H-pyrazol-1-yl)pyrimidin-4-yl)oxy)pyrrolidine-1-carboxylate] | ++ (++ means 200 nM-1000 nM)
Cc1csc(-c2nc(NC3CCC(F)(F)CC3)cc([C@H](C)O)n2)n1 (single isomer, unassigned) [Compound 363] | ++ (++ means 200 nM-1000 nM)
O=C(NCc1cc(NC2CCC(F)(F)CC2)nc(-n2ccc(CF)n2)n1)C1CCC1 [Compound 328, N-((6-((4,4-difluorocyclohexyl)amino)-2-(3-(fluoromethyl)-1H-pyrazol-1-yl)pyrimidin-4-yl)methyl)cyclobutanecarboxamide] | + (+ means >1 uM)

same assay, conditions: whole-cell patch-clamp, HEK293 cells expressing SK2 channels; concentration that increases the basal current by 100%

SMILES | SC100 (μM)
Cc1csc(-c2nc(NC3CCC(F)(F)CC3)cc(N3CC4(COC4)C3)n2)n1 [NSSy5664] | ++ (++ means 200 nM-1000 nM)
Cc1cc(C)n(-c2cc(-n3nc(C)cc3C)nc(NC3CCC(F)(F)CC3)n2)n1 [NSSy6654] | + (+ means >1 uM)
Cc1csc(-c2nc(NC3CCCCC3(F)F)cc(C(C)O)n2)n1 (centres unmarked) [IN11140-083-P1, 1-(6-((2,2-difluorocyclohexyl)amino)-2-(4-methylthiazol-2-yl)pyrimidin-4-yl) ethan-1-ol] | + (+ means >1 uM)
CCC(=O)N1CC(Oc2cc(NC3CCC(F)(F)CC3)nc(-c3nc(C)cs3)n2)C1 [NSSy5726] | ++ (++ means 200 nM-1000 nM)
COC(=O)N1CC(Oc2cc(NC3CCC(F)(F)CC3)ncn2)C1 [NSSy6061, methyl 3-((6-((4,4-difluorocyclohexyl)amino)pyrimidin-4-yl)oxy) azetidine-1-carboxylate] | + (+ means >1 uM)
Cc1csc(-c2cc(N3CCOCC3)cc(OC3CCC(F)(F)CC3)n2)n1 [NSSy6285] | + (+ means >1 uM)
Cc1ccn(-c2nc(NC3CCC(F)(F)CC3)cc(C(C)O)n2)n1 (centres unmarked) [IN10876-051-P1] | + (+ means >1 uM)
COCc1cc(NC2CCC(F)(F)CC2)nc(-c2nc(C)cs2)c1 [NSSy5933, N-(4,4-difluorocyclohexyl)-4-(methoxymethyl)-6-(4-methylthiazol-2-yl)pyridin-2-amine] | ++ (++ means 200 nM-1000 nM)
Cc1csc(-c2nc(NC3CCC(F)(F)CC3)cc(N3CCN4C(=O)OCC4C3)n2)n1 (centres unmarked) [NSSy5774] | ++ (++ means 200 nM-1000 nM)
COCc1cc(NC2CCC(F)(F)CC2)nc(-n2nc(C)cc2C)c1 [NSSy6861, N-(4,4-difluorocyclohexyl)-6-(3,5-dimethyl-1H-pyrazol-1-yl)-4-(methoxymethyl)pyridin-2-amine] | ++ (++ means 200 nM-1000 nM)
COC(C)c1cc(NC2CCC(F)(F)CC2)nc(-n2ccc(C3CC3)n2)n1 (centres unmarked) [IN11196-026-P1, 2-(3-cyclopropyl-1H-pyrazol-1-yl)-N-(4,4-difluorocyclohexyl)-6-(1-methoxyethyl)pyrimidin-4-amine] | + (+ means >1 uM)
Cc1csc(-c2nc(NC3CCC(F)(F)CC3)cc(N(C)C3CC3)n2)n1 [IN10881-090-P1] | + (+ means >1 uM)
Cc1csc(-c2cc(OCc3cnnn3C)cc(NC3CCC(F)(F)CC3)n2)n1 [NSSy5717] | +++ (+++ means <200 nM)
Cc1cc(C)n(-c2nc(NC3CCC(F)(F)CC3)cc([S+](C)[O-])n2)n1 (centres unmarked) [IN11067-062-P1] | + (+ means >1 uM)
Cc1csc(-c2nc(NC3CCC(F)(F)CC3)cc([S+](C)[O-])n2)n1 (centres unmarked) [IN11054-046-P2] | ++ (++ means 200 nM-1000 nM)
Cc1cc(C)n(-c2cc(N3CCOCC3)cc(NC3CCC(F)(F)CC3)n2)n1 [IN10991-044-P1, N-(4,4-difluorocyclohexyl)-6-(3,5-dimethyl-1H-pyrazol-1-yl)-4-morpholinopyridin-2-amine] | ++ (++ means 200 nM-1000 nM)
Cc1cc(C)n(-c2nc(NC3CCCC(C(F)(F)F)C3)cc(C(C)O)n2)n1 (centres unmarked) [IN10973-005-P1] | + (+ means >1 uM)
Cc1cc(NC2CCC(F)(F)CC2)nc(-n2ccc(C3CCCC3)n2)n1 [IN11250-017-P1, 2-(3-cyclopentyl-1H-pyrazol-1-yl)-N-(4,4-difluorocyclohexyl)-6-methylpyrimidin-4-amine] | + (+ means >1 uM)
CCOc1ccn(-c2nc(C)cc(NC3CCC(F)(F)CC3)n2)n1 [IN11079-040-P1, N-(4,4-difluorocyclohexyl)-2-(3-ethoxy-1H-pyrazol-1-yl)-6-methylpyrimidin-4-amine] | + (+ means >1 uM)
Cc1csc(-c2nc(NC3CCC(F)(F)CC3)cc(OCc3ccon3)n2)n1 [IN11125-013-P1] | ++ (++ means 200 nM-1000 nM)
N#CCc1ccn(-c2nc(NC3CCC(F)(F)CC3)cc(N3CC4(COC4)C3)n2)n1 [NSSy5848] | + (+ means >1 uM)
CC(=O)N1CCN(c2cc(-n3ccc(C(F)F)n3)nc(NC3CCC(F)(F)CC3)n2)CC1 [NSSy6930, 1-(4-(2-((4,4-difluorocyclohexyl)amino)-6-(3-(difluoromethyl)-1H-pyrazol-1-yl)pyrimidin-4-yl)piperazin-1-yl)ethan-1-one] | ++ (++ means 200 nM-1000 nM)
Cc1csc(-c2nc(NC3CCC(F)(F)CC3)cc(N3CC(F)(F)OC(F)(F)C3)n2)n1 [IN11030-032-P1] | +++ (+++ means <200 nM)
COc1cc(NC2CC(F)(F)C2)nc(-c2nc(C)cs2)n1 [IN11133-014-P1] | + (+ means >1 uM)
Cc1csc(-c2nc(NC3CCC(F)(F)CC3)cc(N3CCOC(C)(C)C3)n2)n1 [IN10864-043-P1] | +++ (+++ means <200 nM)
Cc1csc(-c2nc(NC3CCC(F)(F)CC3)c(O)c(=O)[nH]2)n1 [IN11039-094-P1, 6-((4,4-difluorocyclohexyl)amino)-2-(4-methylthiazol-2-yl) pyrimidine-4,5-diol] | + (+ means >1 uM)
Cc1ccn(-c2nc(NC(C)(C)C)cc(C(C)O)n2)n1 (centres unmarked) [IN10880-065-P1] | + (+ means >1 uM)
Cc1cc(C)n(-c2nc(NC3CCC(F)(F)CC3)cc(S(C)(=O)=O)n2)n1 [IN11067-061-P1] | + (+ means >1 uM)
COc1ccn(-c2nc(C)cc(NC3CCC(F)(F)CC3)n2)n1 [NSSy6994, N-(4,4-difluorocyclohexyl)-2-(3-methoxy-1H-pyrazol-1-yl)-6-methylpyrimidin-4-amine] | ++ (++ means 200 nM-1000 nM)
Cc1csc(-c2cc(OCc3nnc(C)o3)cc(NC3CCC(F)(F)CC3)n2)n1 [NSSy5694] | +++ (+++ means <200 nM)
